Data taken from US20240174603A1 (Rappta Therapeutics Oy, priority 2021, published 2024).

Test system: LNCaP cells
Assay: LNCaP cell viability assay (MTS)
Format: cell-based
Settings: LNCaP cell line
Description: LNCaP cell line was used for the cell viability assay. LNCaP cells were plated in 96-well plates at a density of 5000 cells per well. After 24 hours of plating, the cells were treated with increasing doses of compound (e.g., compounds 1-269) ranging from 1 μM to 80 μM. Relative cell numbers were analyzed after 48 hours using 3-(4,5-dimethylthiazol-2-yl)-5-(3-carboxymethoxyphenyl)-2-(4-sulfophenyl)-2H-tetrazolium (MTS) assay (Promega) according to the manufacturer's instructions.
The cell viability data was analyzed with GraphPad Prism software. The values were log transformed and analyzed with non-linear regression (curve-fit) using log(inhibitor) vs. response-variable slope (four parameters) and constraining the bottom to equal zero. Unless otherwise indicated, the GI50 values provided in Table 113 correspond to the LNCaP cell viability assays.

Work on `CN(C)CC(NS(=O)(=O)c1ccc(OC(F)(F)F)c(Cl)c1)c1ccc(Cl)c(Cl)c1` (single isomer, unassigned) [Compound 202, 3-chloro-N-(1-(3,4-dichlorophenyl)-2-(dimethylamino)ethyl)-4-(trifluoromethoxy)benzenesulfonamide] yielded a GI50 (48 hours) of 21.6 µM.

`CN(C)C[C@@H](NS(=O)(=O)c1ccc(OC(F)(F)F)c([N+](=O)[O-])c1)c1ccc(Cl)c(Cl)c1` (single isomer, unassigned) [Compound 203, N-(1-(3,4-dichlorophenyl)-2-(dimethylamino)ethyl)-3-nitro-4-(trifluoromethoxy)benzenesulfonamide] showed a GI50 (Homo sapiens, LNCaP, 48 h) of 1.4 µM.

`CN(C)C[C@@H](NS(=O)(=O)c1ccc(OC(F)(F)F)c([N+](=O)[O-])c1)c1ccc(Cl)c(Cl)c1` (single isomer, unassigned) [Compound 204, N-(1-(3,4-dichlorophenyl)-2-(dimethylamino)ethyl)-3-nitro-4-(trifluoromethoxy)benzenesulfonamide] gave a GI50 (48 hours) of 1.14 µM.

Work on `O=S(=O)(NC(CN1CC2CC1CN2)c1ccc(Cl)c(Cl)c1)c1ccc(OC(F)(F)F)cc1` (single isomer, unassigned) [Compound 261a, N-(2-(2,5-diazabicyclo[2.2.1]heptan-2-yl)-1-(3,4-dichlorophenyl)ethyl)-4-(trifluoromethoxy)benzenesulfonamide] yielded a GI50 (Homo sapiens, LNCaP, 48 h) of 10.5 µM.

In the case of `O=S(=O)(NC(CN1CC2CC1CN2)c1ccc(Cl)c(Cl)c1)c1ccc(OC(F)(F)F)cc1` (single isomer, unassigned) [Compound 261b, N-(2-(2,5-diazabicyclo[2.2.1]heptan-2-yl)-1-(3,4-dichlorophenyl)ethyl)-4-(trifluoromethoxy)benzenesulfonamide], the GI50 (48 hours) is reported as 9.79 µM.

Compound `COc1ccc(S(=O)(=O)N2CCC(CNS(=O)(=O)c3ccc(OC(F)(F)F)cc3)CC2)cc1OC` [Compound 1, N-((1-((3,4-dimethoxyphenyl)sulfonyl)piperidin-4-yl)methyl)-4-(trifluoromethoxy)benzenesulfonamide] has a GI50 (Homo sapiens, LNCaP, 48 h) of 63.8 µM.

With `O=S(=O)(NCc1ccccc1S(=O)(=O)N1CCCCC1)c1ccc(OC(F)(F)F)cc1` [Compound 2, N-(2-(piperidin-1-ylsulfonyl)benzyl)-4-(trifluoromethoxy)benzenesulfonamide] the GI50 (Homo sapiens, LNCaP, 48 h) was 58.3 µM.

Compound `O=S(=O)(NCCNS(=O)(=O)c1cc(Br)ccc1Br)c1ccc(OC(F)(F)F)cc1` [Compound 3, 2,5-dibromo-N-(2-((4-(trifluoromethoxy)phenyl)sulfonamido)ethyl)benzenesulfonamide] has a GI50 (Homo sapiens, LNCaP, 48 h) of 24.6 µM.

`CCCC(NS(=O)(=O)c1ccc(OC(F)(F)F)cc1)C(=O)N(C)C1CCCCCC1` (stereo not drawn) [Compound 4, N-cycloheptyl-N-methyl-2-((4-(trifluoromethoxy)phenyl)sulfonamido)pentanamide] showed a GI50 (Homo sapiens, LNCaP, 48 h) of 54 µM.

`CCCCC(NS(=O)(=O)c1ccc(OC(F)(F)F)cc1)C(=O)OC(C)(C)C` (stereo not drawn) [Compound 5, Tert-butyl 2-((4-(trifluoromethoxy)phenyl)sulfonamido)hexanoate] was tested, and the GI50 (Homo sapiens, LNCaP, 48 h) was 39.5 µM.

`COC(=O)C[C@@H](Cc1ccccc1)NS(=O)(=O)c1ccc(OC(F)(F)F)cc1` [Compound 6, Methyl (R)-4-phenyl-3-((4-(trifluoromethoxy)phenyl)sulfonamido)butanoate] showed a GI50 (Homo sapiens, LNCaP, 48 h) of 61.1 µM.

`CC[C@H](C)[C@H](NS(=O)(=O)c1ccc(OC(F)(F)F)cc1)C(=O)OC(C)(C)C` [Compound 7, Tert-butyl ((4-(trifluoromethoxy)phenyl)sulfonyl)-L-isoleucinate] gave a GI50 (Homo sapiens, LNCaP, 48 h) of 57.9 µM.

With `O=S(=O)(NC(CC(F)(F)F)c1ccccc1)c1ccc(OC(F)(F)F)cc1` (stereo not drawn) [Compound 8, N-(3,3,3-trifluoro-1-phenylpropyl)-4-(trifluoromethoxy)benzenesulfonamide] the GI50 (Homo sapiens, LNCaP, 48 h) was 38.1 µM.

Compound `Cc1cccc(CC(CO)NS(=O)(=O)c2ccc(OC(F)(F)F)cc2)c1` (stereo not drawn) [Compound 9, N-(1-hydroxy-3-(m-tolyl)propan-2-yl)-4-(trifluoromethoxy)benzenesulfonamide] has a GI50 (Homo sapiens, LNCaP, 48 h) of 24.1 µM.

Work on `CC(C)CC(CCO)NS(=O)(=O)c1ccc(OC(F)(F)F)cc1` (stereo not drawn) [Compound 10, N-(1-hydroxy-5-methylhexan-3-yl)-4-(trifluoromethoxy)benzenesulfonamide] yielded a GI50 (Homo sapiens, LNCaP, 48 h) of 5.47 µM.

For `CC(O)COc1ccccc1CNS(=O)(=O)c1ccc(OC(F)(F)F)cc1` (stereo not drawn) [Compound 11, N-(2-(2-hydroxypropoxy)benzyl)-4-(trifluoromethoxy)benzenesulfonamide], the GI50 (Homo sapiens, LNCaP, 48 h) was 30.9 µM.

`O=S(=O)(N[C@@H](CCO)c1ccccc1)c1ccc(OC(F)(F)F)cc1` [Compound 12, (S)—N-(3-hydroxy-1-phenylpropyl)-4-(trifluoromethoxy)benzenesulfonamide] showed a GI50 (Homo sapiens, LNCaP, 48 h) of 34.7 µM.

Work on `CCOC(=O)C(CC1CC=CCC1)NS(=O)(=O)c1ccc(OC(F)(F)F)cc1` (stereo not drawn) [Compound 13, Ethyl 3-(cyclohex-3-en-1-yl)-2-((4-(trifluoromethoxy)phenyl)sulfonamido)propanoate] yielded a GI50 (Homo sapiens, LNCaP, 48 h) of 53.5 µM.

In the case of `CCOC(=O)C[C@@H](NS(=O)(=O)c1ccc(OC(F)(F)F)cc1)c1ccccc1Cl` [Compound 14, Ethyl (R)-3-(2-chlorophenyl)-3-((4-(trifluoromethoxy)phenyl)sulfonamido)propanoate], the GI50 (Homo sapiens, LNCaP, 48 h) is reported as 51.9 µM.

Compound `CCOC(=O)C(Cc1cccc(Cl)c1)NS(=O)(=O)c1ccc(OC(F)(F)F)cc1` (stereo not drawn) [Compound 15, Ethyl 3-(3-chlorophenyl)-2-((4-(trifluoromethoxy)phenyl)sulfonamido)propanoate] has a GI50 (Homo sapiens, LNCaP, 48 h) of 49.6 µM.

`CCOC(=O)C(NS(=O)(=O)c1ccc(OC(F)(F)F)cc1)c1ccc(OC)c(Br)c1` (stereo not drawn) [Compound 16, Ethyl 2-(3-bromo-4-methoxyphenyl)-2-((4-(trifluoromethoxy)phenyl)sulfonamido)acetate] showed a GI50 (Homo sapiens, LNCaP, 48 h) of 49.7 µM.

`CCc1ccc(C(NS(=O)(=O)c2ccc(OC(F)(F)F)cc2)C(C)(C)C)o1` (stereo not drawn) [Compound 17, N-(1-(5-ethylfuran-2-yl)-2,2-dimethylpropyl)-4-(trifluoromethoxy)benzenesulfonamide] showed a GI50 (Homo sapiens, LNCaP, 48 h) of 55.6 µM.

Compound `COc1ccc(C)cc1CC(NS(=O)(=O)c1ccc(OC(F)(F)F)cc1)C(C)C` (stereo not drawn) [Compound 18, N-(1-(2-methoxy-5-methylphenyl)-3-methylbutan-2-yl)-4-(trifluoromethoxy)benzenesulfonamide] has a GI50 (Homo sapiens, LNCaP, 48 h) of 76.7 µM.

Work on `O=S(=O)(NC(CC1CC1)c1ccccc1)c1ccc(OC(F)(F)F)cc1` (stereo not drawn) [Compound 19, N-(2-cyclopropyl-1-phenylethyl)-4-(trifluoromethoxy)benzenesulfonamide] yielded a GI50 (Homo sapiens, LNCaP, 48 h) of 51.9 µM.

For `COC(c1ccccc1Cl)C(C)NS(=O)(=O)c1ccc(OC(F)(F)F)cc1` (stereo not drawn) [Compound 20, N-(1-(2-chlorophenyl)-1-methoxypropan-2-yl)-4-(trifluoromethoxy)benzenesulfonamide], the GI50 (Homo sapiens, LNCaP, 48 h) was 50.9 µM.

`CC(NS(=O)(=O)c1ccc(OC(F)(F)F)cc1)c1cc(F)ccc1N1CCC(O)CC1` (stereo not drawn) [Compound 21, N-(1-(5-fluoro-2-(4-hydroxypiperidin-1-yl)phenyl)ethyl)-4-(trifluoromethoxy)benzenesulfonamide] was tested, and the GI50 (Homo sapiens, LNCaP, 48 h) was 46.8 µM.

For `COC(=O)CC(NS(=O)(=O)c1ccc(OC(F)(F)F)cc1)c1ccc(OC)c(Br)c1` (stereo not drawn) [Compound 22], the GI50 (Homo sapiens, LNCaP, 48 h) was 39.1 µM.

`COC(=O)C(C)C(NS(=O)(=O)c1ccc(OC(F)(F)F)cc1)c1ccccc1` (stereo not drawn) [Compound 23] was tested, and the GI50 (Homo sapiens, LNCaP, 48 h) was 43.1 µM.

In the case of `CCOC(=O)CC(NS(=O)(=O)c1ccc(OC(F)(F)F)cc1)c1ccc(C)cc1` (stereo not drawn) [Compound 24], the GI50 (Homo sapiens, LNCaP, 48 h) is reported as 44.2 µM.

Work on `CCOC(=O)CC(NS(=O)(=O)c1ccc(OC(F)(F)F)cc1)c1ccc(OCC)cc1` (stereo not drawn) [Compound 25] yielded a GI50 (Homo sapiens, LNCaP, 48 h) of 75.6 µM.

With `CC(C)CC(NS(=O)(=O)c1ccc(OC(F)(F)F)cc1)c1cccc(C#N)c1` (stereo not drawn) [Compound 26, N-(1-(3-cyanophenyl)-3-methylbutyl)-4-(trifluoromethoxy)benzenesulfonamide] the GI50 (Homo sapiens, LNCaP, 48 h) was 28.9 µM.

For `COc1ccc(OC)c(CCCNS(=O)(=O)c2ccc(OC(F)(F)F)cc2)c1` [Compound 27, N-(3-(2,5-dimethoxyphenyl)propyl)-4-(trifluoromethoxy)benzenesulfonamide], the GI50 (Homo sapiens, LNCaP, 48 h) was 40.2 µM.

With `CCc1ccc(C(CNS(=O)(=O)c2ccc(OC(F)(F)F)cc2)N2CCCC2)cc1` (stereo not drawn) [Compound 28, N-(2-(4-ethylphenyl)-2-(pyrrolidine-1-yl)ethyl)-4-(trifluoromethoxy)benzenesulfonamide] the GI50 (Homo sapiens, LNCaP, 48 h) was 55.8 µM.

Compound `CCOc1ccc(Cl)cc1CCNS(=O)(=O)c1ccc(OC(F)(F)F)cc1` [Compound 29, N-(5-chloro-2-ethoxyphenethyl)-4-(trifluoromethoxy)benzenesulfonamide] has a GI50 (Homo sapiens, LNCaP, 48 h) of 38.3 µM.

In the case of `O=S(=O)(NCc1ccccc1N1CCCC1)c1ccc(OC(F)(F)F)cc1` [Compound 30, N-(2-(pyrrolidin-1-yl)benzyl)-4-(trifluoromethoxy)benzenesulfonamide], the GI50 (Homo sapiens, LNCaP, 48 h) is reported as 49.7 µM.

`CC1CCN(C(CNS(=O)(=O)c2ccc(OC(F)(F)F)cc2)c2ccco2)CC1` (stereo not drawn) [Compound 31, N-(2-(furan-2-yl)-2-(4-methylpiperidin-1-yl)ethyl)-4-(trifluoromethoxy)benzenesulfonamide] was tested, and the GI50 (Homo sapiens, LNCaP, 48 h) was 45.9 µM.

`COc1cc(C2(CNS(=O)(=O)c3ccc(OC(F)(F)F)cc3)CCCC2)ccc1OC(F)F` [Compound 33, N-((1-(4-(difluoromethoxy)-3-methoxyphenyl)cyclopentyl)methyl)-4-(trifluoromethoxy)benzenesulfonamide] was tested, and the GI50 (Homo sapiens, LNCaP, 48 h) was 73.4 µM.

In the case of `O=S(=O)(NC(c1ccc(F)c(C(F)(F)F)c1)C1CC1)c1ccc(OC(F)(F)F)cc1` (stereo not drawn) [Compound 34, N-(cyclopropyl(4-fluoro-3-(trifluoromethyl)phenyl)methyl)-4-(trifluoromethoxy)benzenesulfonamide], the GI50 (Homo sapiens, LNCaP, 48 h) is reported as 40.1 µM.

`COCCC(NS(=O)(=O)c1ccc(OC(F)(F)F)cc1)c1ccc(Cl)c(Cl)c1` (stereo not drawn) [Compound 35, N-(1-(3,4-dichlorophenyl)-3-methoxypropyl)-4-(trifluoromethoxy)benzenesulfonamide] gave a GI50 (Homo sapiens, LNCaP, 48 h) of 50.9 µM.
